Laboratory results from patent US9101613B2, “Methods for treating neurological disease” (Neurim Pharmaceuticals (1991) Ltd., priority 2006, dated 2015).
pIC50, pKi: −log10 of the molar value. Like-named read-outs stand apart in the source and are kept apart here.

Key:
[1] = tested on: CD1 mice; experiment: Potentiation of hexobarbital-Na sleep time in mice; format: in vivo; details: for effect on hexobarbital-Na narcosis time: 100 mg/kg i.p.; for Changes (%) vs. Vehicle (sleep time) / Mean Sleep Time-Treatment (min) ± SE: 100 mg/kg i.p. 15 min before 50 mg/kg hexobarbital-Na i.v.; for Mean Sleep Time-Treatment (min) ± SE: loss to recovery of righting reflex
Experimental: CD1 mice were divided randomly into groups of seven mice each. The mice in each group were administered intraperitoneally a dose of one of the following: 100 mg/kg of one of test substances O-[2-(5-methoxy-indol-3-yl)-ethyl]-comenic ester, N-[2-(5-methoxyindol-3-yl)-ethyl]-commenamide, N-[2-(5-methoxy-indol-3-yl)-ethyl]-coumalylamide, N-[2-(5-methoxy-indol-3-yl)-ethyl]-chelidonamide, N-[2-(5-methoxy-indol-3-yl)-ethyl]-comanilamide or N-[2-(5-methoxy-indol-3-yl)-ethyl]-2-methoxy-commenamide in saline (0.1 ml/10 g body weight), or saline alone. Fifteen minutes later the mice received a dose of 50 mg/kg of hexobarbital-Na intravenously. Sleep time was measured in each animal as the time from loss to recovery of the righting reflex.

[2] = molecular target: T1, 5-HT2B receptor (Homo sapiens, UniProt P41595); experiment: Serotonin receptor binding, [3H] LSD, CHO-K1 membranes
T1 construct: expressed in transfected cells; host or cells: CHO-K1
Experimental: (§1) Aliquots of suspended membranes of human recombinant CHO-K1 cells stably expressing human 5-HT1A, 5-HT2A, 5-HT1B, 5-HT2B, 5-HT2C, 5-HT4, 5-HT6 or 5-HT7 receptors were pre-incubated at 25° C. with 1.5 nM [^3H] 8-OH-DPAT (5-HT1A), 1.5 nM [^3H] Ketanserin (5-HT2A), 0.01 nM [^125I] Cyanopindolol (5-HT1B), 1 nM [^3H] Mesulergine (5-HT2c), 0.7 nM [^3H] GR-113808 (5-HT4) or at 37° C. 1.2 nM [^3H] LSD (5-HT2B, 5-HT6 and 5-HT7) in buffer (50 mM Tris-HCl, pH 7.7) alone or in the presence of 1 nM, 10 nM, 0.1 μM, 1 μM, and 10 μM of N-[2-(5-methoxy-indol-3-yl)-ethyl]-commenamide, N-[2-(5-methoxy-indol-3-yl)-ethyl]-coumalylamide, N-[2-(5-methoxy-indol-3-yl)-ethyl]-comanilamide, N-[2-(5-methoxy-indol-3-yl)-ethyl]-2-methoxy-commenamide or N-[2-(5-methoxy-indol-3-yl)-ethyl]-chelidonamide for 60 minutes. The binding reaction was terminated and washed with 4 ml ice-cold 50 mM Tris-HCl buffer by vacuum filtration. Membranes were then collected, and the filters containing the bound ligands were assayed for the amount of radioactivity in a b-counter. Non-specific binding was evaluated using a reaction with 10 μM metergoline (5-HT1A), 1 μM mianserin (5-HT2A and 5-HT2c) or 10 μM serotonin (5-HT1B, 5-HT2B, 5-HT4, 5-HT6 and 5-HT7).

[3] = molecular target: T2, MT-3 receptor (Mesocricetus auratus, UniProt A0ABM2YAB8); experiment: 125I-melatonin binding in hamster brain membranes, MT-3; details: for inhibition at 10 µM: read-out: MT-3 receptor binding % inhibition by 10 μM
T2 construct: from tissue; host or cells: hamster brain membranes
T2 sequence (A0ABM2YAB8 1-231): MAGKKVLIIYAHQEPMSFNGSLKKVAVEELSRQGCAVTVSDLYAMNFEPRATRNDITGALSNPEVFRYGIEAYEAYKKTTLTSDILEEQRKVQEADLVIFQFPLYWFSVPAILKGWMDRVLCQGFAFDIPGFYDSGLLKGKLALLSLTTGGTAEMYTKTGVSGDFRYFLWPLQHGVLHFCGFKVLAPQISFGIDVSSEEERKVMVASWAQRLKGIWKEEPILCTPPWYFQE
Experimental: (§2) Aliquots of suspended membranes of human recombinant CHP-K1 (Chinese hamster ovary) cells stably expressing human melatonin-1 or melatonin-2 (MT-1 or MT-2) receptors or of hamster brain (MT-3) were incubated at 25° C. with 0.05 nM ^125I-melatonin in buffer (25 mM HEPES, pH 7.4, 5 mM MgCl2, 1 mM CaCl2, 0.5% BSA) or with 0.1 nM for MT-3 alone or in the presence of 1 nM, 10 nM, 0.1 μM, 1 μM and 10 μM of test substances N-[2-(5-methoxy-indol-3-yl)-ethyl]-commenamide, N-[2-(5-methoxy-indol-3-yl)-ethyl]-comanilamide, N-[2-(5-methoxy-indol-3-yl)-ethyl]-coumalylamide, N-[2-(5-methoxy-indol-3-yl)-ethyl]-2-methoxy-commenamide, N-[2-(5-methoxy-indol-3-yl)-ethyl]-chelidonamide, O-[2-(5-methoxy-indol-3-yl)-ethyl]-comenic ester, N-[2-(5-methoxy-indol-3-yl)-ethyl]-2-Pyrone-6-carboxamide and N-[2-(2-bromo-5-methoxy-indol-3-yl)-ethyl]-coumalylamide for 3 hours for MT-1, 4 hours for MT-2 and 30 min for MT-3. The binding reaction was terminated and the membranes were washed with 4 ml of ice-cold HEPES buffer by vacuum filtration. Membranes were then collected, and the filters containing the bound ^125I-melatonin were assayed for the amount of radioactivity in a […]. Non-specific binding was evaluated using a reaction with 1 μM 6-chloromelatonin (MT-1 and MT-2) or 30 μM melatonin (MT-3).

[4] = molecular target: T3, MT-1 receptor (Homo sapiens, UniProt P48039); experiment: 125I-melatonin binding in membranes of CHP-K1 cells, MT-1; details: for inhibition at 10 µM: read-out: MT-1 receptor binding % inhibition by 10 μM
T3 construct: expressed in transfected cells; host or cells: CHP-K1 (Chinese hamster ovary) cells (so in the source)
Experimental: as §2

[5] = molecular target: T4, MT-2 receptor (Homo sapiens, UniProt P49286); experiment: 125I-melatonin binding in membranes of CHP-K1 cells, MT-2; details: for inhibition at 10 µM: read-out: MT-2 receptor binding % inhibition by 10 μM
T4 construct: expressed in transfected cells; host or cells: CHP-K1 (Chinese hamster ovary) cells (so in the source)
T4 sequence (P49286 1-362): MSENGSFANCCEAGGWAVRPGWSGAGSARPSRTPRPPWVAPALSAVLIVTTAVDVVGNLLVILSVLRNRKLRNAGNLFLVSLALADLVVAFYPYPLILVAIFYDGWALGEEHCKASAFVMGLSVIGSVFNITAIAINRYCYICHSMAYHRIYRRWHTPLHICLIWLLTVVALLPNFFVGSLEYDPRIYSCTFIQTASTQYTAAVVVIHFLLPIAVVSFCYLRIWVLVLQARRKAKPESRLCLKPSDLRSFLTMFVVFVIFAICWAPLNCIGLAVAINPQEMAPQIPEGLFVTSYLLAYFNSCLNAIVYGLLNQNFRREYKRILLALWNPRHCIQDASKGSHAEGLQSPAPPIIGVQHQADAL
Experimental: as §2

[6] = molecular target: T5, 5-HT7 receptor (Homo sapiens, UniProt P34969); experiment: Serotonin receptor binding, [3H] LSD, CHO-K1 membranes
T5 construct: expressed in transfected cells; host or cells: CHO-K1
Experimental: as §1

[7] = 0.1 nM 125I-melatonin, 30 min, read-out: MT-3 receptor binding IC50
[8] = 0.1 nM 125I-melatonin, 30 min, read-out: MT-3 receptor binding KI
[9] = 0.05 nM 125I-melatonin, 25° C., 3 hours, read-out: MT-1 receptor binding IC50
[10] = 0.05 nM 125I-melatonin, 25° C., 3 hours, read-out: MT-1 receptor binding KI
[11] = 0.05 nM 125I-melatonin, 25° C., 4 hours, read-out: MT-2 receptor binding IC50
[12] = 0.05 nM 125I-melatonin, 25° C., 4 hours, read-out: MT-2 receptor binding KI

T1 sequence (P41595 whole entry): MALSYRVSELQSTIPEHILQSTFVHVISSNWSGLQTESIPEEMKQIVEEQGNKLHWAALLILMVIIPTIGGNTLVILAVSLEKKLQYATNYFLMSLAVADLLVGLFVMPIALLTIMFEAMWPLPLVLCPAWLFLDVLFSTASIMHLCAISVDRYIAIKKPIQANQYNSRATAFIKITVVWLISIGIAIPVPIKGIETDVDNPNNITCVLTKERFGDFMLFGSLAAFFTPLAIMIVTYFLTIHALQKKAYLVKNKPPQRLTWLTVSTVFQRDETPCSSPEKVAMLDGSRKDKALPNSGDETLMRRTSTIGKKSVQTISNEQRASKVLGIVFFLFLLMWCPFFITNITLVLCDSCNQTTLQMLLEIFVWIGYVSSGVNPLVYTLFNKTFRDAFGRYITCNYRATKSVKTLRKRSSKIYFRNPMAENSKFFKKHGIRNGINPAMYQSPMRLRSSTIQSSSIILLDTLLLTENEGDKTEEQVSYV
T3 sequence (P48039 whole entry): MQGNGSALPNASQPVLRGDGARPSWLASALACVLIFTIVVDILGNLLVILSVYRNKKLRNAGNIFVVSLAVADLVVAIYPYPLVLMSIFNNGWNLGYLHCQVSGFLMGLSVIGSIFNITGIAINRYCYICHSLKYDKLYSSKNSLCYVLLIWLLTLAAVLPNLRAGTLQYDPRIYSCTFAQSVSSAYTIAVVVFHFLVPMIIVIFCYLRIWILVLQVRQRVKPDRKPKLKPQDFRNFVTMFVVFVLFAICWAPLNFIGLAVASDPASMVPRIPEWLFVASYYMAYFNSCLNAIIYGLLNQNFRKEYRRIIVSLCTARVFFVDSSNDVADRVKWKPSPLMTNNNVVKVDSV
T5 sequence (P34969 whole entry): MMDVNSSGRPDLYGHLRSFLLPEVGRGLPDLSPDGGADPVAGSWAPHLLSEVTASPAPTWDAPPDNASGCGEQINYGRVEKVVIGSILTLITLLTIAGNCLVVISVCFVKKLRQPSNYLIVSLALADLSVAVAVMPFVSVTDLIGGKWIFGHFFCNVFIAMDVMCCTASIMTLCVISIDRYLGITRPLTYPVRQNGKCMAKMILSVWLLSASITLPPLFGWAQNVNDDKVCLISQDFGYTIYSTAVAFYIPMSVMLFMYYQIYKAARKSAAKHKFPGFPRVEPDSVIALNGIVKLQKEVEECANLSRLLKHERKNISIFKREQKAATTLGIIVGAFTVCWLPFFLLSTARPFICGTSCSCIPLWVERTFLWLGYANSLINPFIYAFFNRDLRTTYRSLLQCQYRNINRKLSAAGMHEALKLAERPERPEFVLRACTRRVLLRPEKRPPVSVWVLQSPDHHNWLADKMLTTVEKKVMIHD

COc1ccc2[nH]cc(CCNC(=O)c3cc(=O)cco3)c2c1 [N-[2-(5-methoxy-indol-3-yl)-ethyl]-comanilamide]
effect on hexobarbital-Na narcosis time [1]: moderately increased the hexobarbital-Na narcosis time
Changes (%) vs. Vehicle (sleep time) [1]: +49%
Mean Sleep Time-Treatment (min) ± SE [1]: 17.52 ± 3.07 min
pIC50 ([2]; read-out: 5-HT2B IC50): 5.17
pKi ([2]; read-out: 5-HT2B KI): 5.36
affinity to MT-3 [3]: high affinity
pIC50 [3, 7]: 6.51
pKi [3, 8]: 6.52
inhibition at 10 µM ([3]; 10 μM, 0.1 nM 125I-melatonin): 100%
affinity to MT-1 [4]: high affinity
pIC50 [4, 9]: 7.38
pKi [4, 10]: 7.66
inhibition at 10 µM ([4]; 10 μM, 0.05 nM 125I-melatonin): 98%
affinity to MT-2 [5]: high affinity
pIC50 [5, 11]: 7.19
pKi [5, 12]: 7.47
inhibition at 10 µM ([5]; 10 μM, 0.05 nM 125I-melatonin): 100%

COc1ccc2[nH]cc(CCNC(=O)c3cc(=O)c(OC)co3)c2c1 [N-[2-(5-methoxy-indol-3-yl)-ethyl]-2-methoxy-commenamide]
Changes (%) vs. Vehicle (sleep time) [1]: −21%
Mean Sleep Time-Treatment (min) ± SE [1]: 7.70 ± 1.24 min
affinity to 5-HT7 [6]: moderate affinity
pIC50 ([6]; read-out: 5-HT7 IC50): 6.13
pKi ([6]; read-out: 5-HT7 KI): 6.38
affinity to 5-HT2B [2]: moderate affinity
pIC50 ([2]; read-out: 5-HT2B IC50): 5.75
pKi ([2]; read-out: 5-HT2B KI): 5.95
pIC50 [3, 7]: 6.64
pKi [3, 8]: 6.66
inhibition at 10 µM ([3]; 10 μM, 0.1 nM 125I-melatonin): 99%
pIC50 [4, 9]: 5.67
pKi [4, 10]: 5.95
inhibition at 10 µM ([4]; 10 μM, 0.05 nM 125I-melatonin): 76%
pIC50 [5, 11]: 6.08
pKi [5, 12]: 6.37
inhibition at 10 µM ([5]; 10 μM, 0.05 nM 125I-melatonin): 93%

COc1ccc2[nH]cc(CCNC(=O)c3ccc(=O)oc3)c2c1 [N-[2-(5-methoxy-indol-3-yl)-ethyl]-coumalylamide]
effect on hexobarbital-Na narcosis time [1]: significantly increased the hexobarbital-Na narcosis time
Changes (%) vs. Vehicle (sleep time) [1]: +194%
Mean Sleep Time-Treatment (min) ± SE [1]: 23.58 ± 3.19 min
affinity to 5-HT7 [6]: moderate affinity
pIC50 ([6]; read-out: 5-HT7 IC50): 6.18
pKi ([6]; read-out: 5-HT7 KI): 6.42
pIC50 ([2]; read-out: 5-HT2B IC50): 5.52
pKi ([2]; read-out: 5-HT2B KI): 5.72
pIC50 [3, 7]: 6.01
pKi [3, 8]: 6.02
inhibition at 10 µM ([3]; 10 μM, 0.1 nM 125I-melatonin): 95%
pIC50 [4, 9]: 6.12
pKi [4, 10]: 6.41
inhibition at 10 µM ([4]; 10 μM, 0.05 nM 125I-melatonin): 89%
pIC50 [5, 11]: 6.43
pKi [5, 12]: 6.72
inhibition at 10 µM ([5]; 10 μM, 0.05 nM 125I-melatonin): 95%

COc1ccc2[nH]cc(CCNC(=O)c3cc(=O)cc(C(=O)O)o3)c2c1 [N-[2-5-methoxy-indol-3-yl)-ethyl]-chelidonamide]
effect on hexobarbital-Na narcosis time [1]: moderately increased the hexobarbital-Na narcosis time
Changes (%) vs. Vehicle (sleep time) [1]: +54%
Mean Sleep Time-Treatment (min) ± SE [1]: 12.37 ± 1.85 min
pIC50 ([2]; read-out: 5-HT2B IC50): 5.68
pKi ([2]; read-out: 5-HT2B KI): 5.88
pIC50 [3, 7]: 5.66
pKi [3, 8]: 5.66
inhibition at 10 µM ([3]; 10 μM, 0.1 nM 125I-melatonin): 86%
pIC50 [4, 9]: 5.61
pKi [4, 10]: 5.89
inhibition at 10 µM ([4]; 10 μM, 0.05 nM 125I-melatonin): 80%
pIC50 [5, 11]: 5.75
pKi [5, 12]: 6.04
inhibition at 10 µM ([5]; 10 μM, 0.05 nM 125I-melatonin): 89%

COc1ccc2[nH]cc(CCNC(=O)c3cc(=O)c(O)co3)c2c1 [N-[2-(5-methoxy-indol-3-yl)-ethyl]-commenamide]
effect on hexobarbital-Na narcosis time [1]: significantly increased the hexobarbital-Na narcosis time
Changes (%) vs. Vehicle (sleep time) [1]: +88%
Mean Sleep Time-Treatment (min) ± SE [1]: 17.13 ± 8.06 min
pIC50 [6]: 6.64
pKi [6]: 6.88
affinity to 5-HT7 [6]: moderate affinity
pIC50 [2]: 5.65
pKi [2]: 5.84
affinity to 5-HT2B [2]: moderate affinity
pIC50 [3]: 6.10
pKi [3]: 6.11
affinity to MT-3 [3]: high affinity
inhibition at 10 µM [3]: 98%
pIC50 [4]: 7.62
pKi [4]: 7.89
affinity to MT-1 [4]: high affinity
inhibition at 10 µM [4]: 99%
pIC50 [5]: 7.89
pKi [5]: 8.15
affinity to MT-2 [5]: high affinity
inhibition at 10 µM [5]: 101%
